Laboratory results taken from US20060058384A1, “Treatment of IGA nephropathy with omega-3 fatty acids” (PRONOVA BIOCARE, A.S., priority 2004, published 2006).
“Also recorded” adds a separate entry of the source.

System: patients with IgA nephropathy
Experiment: Placebo-controlled clinical trial in IgA nephropathy: GFRest, UP/C and Composite Response/Outcome Scores
Format: in vivo, human
Excerpt: In a multicenter, placebo-controlled, double blind clinical trial, we evaluated the efficacy of a 24-month stable daily dose (4 grams per day) of a highly purified preparation of O3 (especially icosapent & doconexent).
We performed secondary analyses based on clinical response scores derived from changes in the level of proteinuria (defined by urine protein to creatinine ratios in first morning urine specimens) and GFRest. Composite Response Score, which represented changes in proteinuria and GFR scores were also calculated.
This was a placebo-controlled, prospective clinical trial. After fulfilling all entry criteria, patients were assigned to one of three treatment arms, as described in our paper discussing the primary analysis of this study.
Randomization of patients was stratified by hypertensive status and blocked randomization was used within each stratum.
Estimation of GFR and level of proteinuria. The glomerular filtration rate (GFR) was estimated at 6 monthly intervals in each patient using standard age-appropriate formulas. […] Serum creatinine measurements were measured by HPLC. […]
Statistical analysis: After it was noted that there was wide variation in the plasma phospholipid fatty acid profiles in patients receiving icosapent/doconexent (FIG. 1), a series of secondary analyses was conducted to determine the cause for this variability and to evaluate if the fatty acid profiles affected patient outcome. Clinical response scores were determined for each patient based on changes in the estimated GFR (−5 to +5) and urine protein/creatinine ratios (−5 to +5) at each 6 month visit up to 36 months. Composite response scores (−10 to +10) at each time interval were then determined based on the patients' combined GFR and UP/C Response Scores—with equal weight given to each (Table 1). Clinical outcome scores were then calculated based on the mean of the Composite Response Scores at 18 and 24 months. The dosage of the study drugs given to each patient was calculated as g/kg body weight and g/m^2 BSA. […]

C[C@]12C=CC(=O)C=C1CC[C@@H]1[C@@H]2C(=O)C[C@@]2(C)[C@H]1CC[C@]2(O)C(=O)CO [prednisone]
Composite Response Scores, treatment arm as a whole (6-month intervals, 0 to 36 months, FIG. 2): significantly better; also recorded: better response
Primary analysis: decrease of GFR to less than 60% of baseline (24-month treatment, O3 4 grams per day, prednisone alternate-day): did not show a statistically significant benefit
Secondary analysis: efficacy by clinical response scores (proteinuria and GFRest) (secondary analyses): effective
